Measurements taken from publication PMC8039949, “A novel small-molecule PROTAC selectively promotes tau clearance to improve cognitive functions in Alzheimer-like models” (Theranostics, 2021).

What was measured:
HEK293-hTau cells = assay: CCK-8 cell viability assay; assay type: cell-based, human; settings: 0.01, 0.1, 1, 10, 20 and 100 μM, 24 h
Method: Cell viability was assessed using CCK-8 kit by following the manufacturer's instructions. The cells were seeded at a concentration of 5,000 cells per well in a 96-well plate and then treated with various concentrations of C004019 (0, 0.01, 0.1, 1, 10, 20 and 100 μM) for 24 h. After the treatments, the culture medium was removed, and 10 μL of CCK-8 in 90 μL of medium was added. After incubating for 30 min at 37 °C, the absorbance was measured at 450 nm using a microplate reader (BioTek, 250058).

tau with Vhl (E3 ligase) = molecular target: T1, tau with Vhl (E3 ligase) (Homo sapiens, UniProt P10636+P40337); assay: Co-immunoprecipitation of tau with Vhl and tau ubiquitination in HEK293-hTau cells; assay type: cell-based; settings: 20 μM for 6 h
T1 construct: expressed in transfected cells; host or cells: HEK293-hTau (tau stably expressed; VHL endogenous)
Method: Cell lysates were centrifuged at 12,000 g for 20 min at 4 °C and the supernatant were incubated with protein G agarose beads (Millipore, 16-266), pre-washed with cold PBS for 1 h at 4 °C to remove non-specific proteins. After centrifuged (14,000 g) at 4 °C for 15 min, the supernatant was collected and protein concentration was measured by BCA assay. The supernatant was sequentially incubated with primary antibodies (2 μg/100 μg) overnight at 4 °C with rotating in the first day and protein G agarose beads (20 μL/100 μL) the next day. After spin (6,000 g) for 2 min at 4 °C, the pellets were collected, washed with precooled washing buffer for 3 times, resuspended in buffer (50 mM Tris-HCl, pH 6.8, 2% SDS, 10% glycerol), boiled for 10 min, and analyzed by Western blotting.

3xTg-AD mice = assay: Multiple-doses subcutaneous administration in 3xTg-AD mice, behavior and synaptic function; assay type: in vivo, mouse; settings: 9.5 m-old 3xTg-AD mice, subcutaneous 3 mg/kg every 6 days, 5 times
Method: The Open field (OF) test was consisted of a 5 min session in a quadrate chamber (white opaque plastic). The chamber was divided into 16 square regions, a central field (center 4 square regions) and a periphery field. Each mouse was placed in the same position at the start of the test. Behaviors were recorded and analyzed by the video tracking system (Chengdu Taimeng Software Co., Ltd, China).
For novel object recognition (NOR) test, the mice were habituated to a quadrate chamber (white opaque plastic) for 5 min without objects 24 h prior to the test. The chamber was cleaned with 75% ethanol between each habituation period. The day after the mice re-entered the chamber from the same starting point and were given 10 min to familiarize themselves with the object A and object B. After each period the chamber and objects were cleaned with 75% ethanol. The next day after the familiarization period, object B was replaced with noval object C, and the mice were given 10 min to explore both objects. The exploring time in object A (TA) and C (TC) was recorded using the video tracking system. The discrimination index was calculated by (TC-TA)/(TA+TC).
The Elevated plus maze (EPM) test was performed as follows: mice were placed at the junction of the four arms of the maze (white opaque plastic), and started the test from facing an open arm. The chambers were cleaned with 75% ethanol before the next mouse was trained. The entries and duration time in each arm were recorded for 5 min by the video tracking system (Chengdu Taimeng Software Co., Ltd, China). An increase in open arm activity (duration and/or entries) reflects anti-anxiety behavior.
The Morris water maze (MWM) test was conducted to assess the spatial learning and memory. The maze was filled with water and divided into 4 quadrants with a platform placed in one quadrant. The mice were trained to find the hidden platform for 6 consecutive days, and underwent […] training trials (once per quadrant) per day from 14:00 to 20:00 pm. In each training trial, the mouse started from one of four quadrants facing the wall of the pool and the trial ended when the animal climbed on the platform. […] The spatial memory was tested 1 d after the last training by removed the platform. The longer a mouse stayed in the previous platform-located quadrant, the better it scored the spatial memory. A video camera, fixed to the ceiling 1.5 m from the water surface, was used to record the swimming path and the time for mice to find the platform (latency) or to pass through the previous platform-located quadrant each day. The camera was connected to a digital-tracking device attached to an IBM computer (Armonk, NY).
For fear conditioning (FC) test, the mice were placed into a square chamber with a grid floor. On the first day (day 1), each mouse was habituated to the chamber for 3 min, and then a foot shock (0.9 mA, 3 s) was delivered. Three sequential foot shocks at 3 min intervals were applied. Then the mice were returned to their home cages. On the next day (day 2), the mice were exposed to the same chamber without any stimulus for 3 min. The contextual conditioning was assessed by recording freezing behavior during the 3 min exposure. Freezing time during the 3 min was recorded for assessment of memory.
Mice used for electrophysiology experiments were deeply anesthetized as described above. When all pedal reflexes were abolished, brains were removed and placed in ice-cold oxygenated slicing solution containing the following: 225 mM sucrose, 3 mM KCl, 1.25 mM NaH2PO4, 24 mM NaHCO3, 6 mM MgSO4, 0.5 mM CaCl2, and 10 mM D-glucose. Coronal slices (300 μm thickness) were cut at 4-5 °C in the slicing solution using a Leica VT1000S vibratome and then transferred to an incubation chamber filled with oxygenated slicing solution in a 30 °C water bath for 1 h before being recorded. […]

T1 sequence (P10636 1-441 isoform P10636-8): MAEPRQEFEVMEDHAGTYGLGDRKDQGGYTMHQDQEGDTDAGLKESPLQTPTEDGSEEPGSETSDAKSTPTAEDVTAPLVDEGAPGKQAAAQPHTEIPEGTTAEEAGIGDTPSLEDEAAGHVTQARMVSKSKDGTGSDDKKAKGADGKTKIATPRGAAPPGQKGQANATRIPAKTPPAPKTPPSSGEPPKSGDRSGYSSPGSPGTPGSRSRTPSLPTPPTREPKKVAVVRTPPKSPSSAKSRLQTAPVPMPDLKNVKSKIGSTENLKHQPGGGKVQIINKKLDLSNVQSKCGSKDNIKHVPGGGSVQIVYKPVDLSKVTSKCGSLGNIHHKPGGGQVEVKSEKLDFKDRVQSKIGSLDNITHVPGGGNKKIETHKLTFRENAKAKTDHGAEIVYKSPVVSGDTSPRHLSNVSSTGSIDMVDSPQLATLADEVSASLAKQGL
T1 sequence (P40337 whole entry): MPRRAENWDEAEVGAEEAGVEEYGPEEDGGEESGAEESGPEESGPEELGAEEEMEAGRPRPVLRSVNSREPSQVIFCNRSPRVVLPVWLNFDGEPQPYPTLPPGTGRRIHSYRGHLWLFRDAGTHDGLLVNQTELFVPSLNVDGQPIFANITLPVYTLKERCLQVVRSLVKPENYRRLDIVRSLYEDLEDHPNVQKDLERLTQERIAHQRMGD
T1 sequence (Q15369 whole entry partner): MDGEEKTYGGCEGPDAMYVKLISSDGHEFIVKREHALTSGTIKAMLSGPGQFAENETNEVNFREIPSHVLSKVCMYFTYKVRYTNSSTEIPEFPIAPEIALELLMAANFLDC
T1 sequence (Q15370 whole entry partner): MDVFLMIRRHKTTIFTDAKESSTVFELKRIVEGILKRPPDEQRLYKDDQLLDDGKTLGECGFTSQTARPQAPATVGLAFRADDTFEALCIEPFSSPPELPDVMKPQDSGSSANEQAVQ
T1 sequence (Q13617 whole entry partner): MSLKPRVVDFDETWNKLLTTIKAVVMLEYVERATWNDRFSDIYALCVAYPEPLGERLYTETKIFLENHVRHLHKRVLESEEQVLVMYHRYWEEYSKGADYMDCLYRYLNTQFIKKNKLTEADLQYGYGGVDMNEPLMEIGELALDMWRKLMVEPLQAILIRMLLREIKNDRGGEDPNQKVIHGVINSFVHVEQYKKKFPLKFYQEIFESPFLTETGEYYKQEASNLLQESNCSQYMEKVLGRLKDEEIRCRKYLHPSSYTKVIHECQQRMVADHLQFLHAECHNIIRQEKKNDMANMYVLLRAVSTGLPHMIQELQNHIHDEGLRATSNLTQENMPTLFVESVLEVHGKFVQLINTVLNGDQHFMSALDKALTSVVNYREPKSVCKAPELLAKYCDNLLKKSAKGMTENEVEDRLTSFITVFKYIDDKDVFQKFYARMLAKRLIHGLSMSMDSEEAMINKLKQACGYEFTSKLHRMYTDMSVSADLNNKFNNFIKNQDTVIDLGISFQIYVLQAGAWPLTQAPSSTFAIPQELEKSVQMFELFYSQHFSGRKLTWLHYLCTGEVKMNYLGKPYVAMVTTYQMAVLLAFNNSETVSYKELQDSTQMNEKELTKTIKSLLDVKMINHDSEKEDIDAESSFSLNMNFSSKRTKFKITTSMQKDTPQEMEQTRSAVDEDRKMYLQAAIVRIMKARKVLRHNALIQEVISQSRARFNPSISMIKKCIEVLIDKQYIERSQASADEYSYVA
T1 sequence (P62877 whole entry partner): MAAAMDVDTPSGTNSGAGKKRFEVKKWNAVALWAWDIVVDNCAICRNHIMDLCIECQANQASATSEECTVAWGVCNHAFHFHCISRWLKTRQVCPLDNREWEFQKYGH

CC(=O)N1CCCN(c2nc(NCCc3cccs3)nc(N(C)CC(=O)NCCOCCOCCOCC(=O)N[C@H](C(=O)N3C[C@H](O)C[C@H]3C(=O)NCc3ccc(-c4scnc4C)cc3)C(C)(C)C)n2)CC1 [C004019]
cell viability (CCK8 assay) (HEK293-hTau cells): did not induce any significant change in cell viability | ubiquitination level of tau (tau with Vhl (E3 ligase)): significantly increased the ubiquitination level of tau | FC test, freezing index (3xTg-AD mice): restored the freezing index | NOR test, discrimination index (3xTg-AD mice): almost completely restored the memory ability | motor and anxiety levels (OF and EPM tests) (3xTg-AD mice): did not significantly affect the motor and anxiety levels | MWM test, latency to reach the platform (3xTg-AD mice; 6 days learning trial): shorter latency to reach the platform | spine density (3xTg-AD mice; Golgi-cox staining): restored spine density | neurite arborization (3xTg-AD mice; Sholl analysis): didn't have any effect on neurite arborization | LTP induction (fEPSP amplitude and slope) (3xTg-AD mice; hippocampal slices): restored
